Values of other authors in article PMC12484987 (Scientific Reports, 2025).
pIC50: −log10 of the molar value. “And” between values parts separate entries of the source, which are not always exact repeats. Equal entries are not always repeated.

Key:
HIV-1 RT = HIV-1 RT (Human immunodeficiency virus type 1 group M subtype B, UniProt P04585); details: quinolines of the previous publication, cited from earlier work
[1] = system: MOLT-3 (Acute lymphoblastic leukemia); details: read-out: IC50 cytotoxicity; cited from earlier work
[2] = system: HeLa (Cervical carcinoma); details: read-out: IC50 cytotoxicity; cited from earlier work
HL-60 (promyeloblast) = details: read-out: IC50 cytotoxicity; cited from earlier work

For Cc1cc(C=O)cc(C)c1Oc1cc(Nc2ccc(C#N)cn2)nc2ccccc12 [4-(2’,6’-dimethyl-4’-formylphenoxy)−2-(5’’-cyanopyridin-2’’ylamino)quinoline], the “percentage inhibition against HIV-1 RT” value (HIV-1 RT) is given as 44% and 44.5%, the pIC50 (HIV-1 RT; read-out: IC50 against HIV-1 RT) is given as 5.71 and the pIC50 [1] is given as 4.90. The pIC50 [2] was 4.59 and the pIC50 (HL-60 (promyeloblast)) was 4.69.
